Measurements taken from patent publication US20130274233A1, “MODULATORS OF HEDGEHOG SIGNALING PATHWAY” (priority 2012, published 2013).

What was measured:
Smo = test: Bodipy-cyclopamine competition assay in Cos 7 cells expressing Smo; format: binding; details: for competition of Bodipy-Cyc binding to Smo: cells over-expressing Smo, 5 nM Bodipy-cyclopamine
Method: Cos 7 cells were transfected with a plasmid co-expressing Smo and a nuclear localized form of tagRFPT (pCIT-Smo). An empty parental construct (pCIT), and a construct that co-expresses SmoM2, were used as controls to assess specificity and background noise. Three days after transfection, cells were incubated with 5 nM Bodipy-cyclopamine, with or without other compounds for 1 hour at 37 °C. Cells were washed, fixed and stained with Hoechst. Images were collected by an Opera High Content Screen System. Bodipy fluorescence was quantified specifically for transfected cells (determined by red tagRFPT+ nucleus) using a program developed by the authors with Acapella 2.0 software. All of the images were scanned with identical microscopic settings and analyzed with the same input parameters.
Cos 7 cells were transfected with a plasmid that co-expresses Smo and a nuclear localized tagRFPT marker (pCIT-Smo). The empty parental construct (pCIT) and a construct that co-express SmoM2 were used as controls to assess specificity and background signal. Three days after transfection, cells were incubated with 5 nM Bodipy-cyclopamine, with or without additional compounds, for 1 hour at 37° C. Cells were then fixed and stained with Hoechst. Images were collected with the Opera High Content Screen System. Fluorescence values were assessed in transfected cells (red nuclei) with a program developed by the authors using Acapella 2.0 software. All of images were scanned with identical microscopic setting and analyzed with the same input parameters.

[1] = test system: cerebellar granule neuron precursors (CGNPs) from P7 Ptch1+/− mice; test: CGNP proliferation assay (pH3 positive cells); format: cell-based
Method: CGNP primary cells were isolated from P7 Ptch1+/− mice as previously reported^43 and immediately seeded in poly-D-lysine coated imaging plates (Greiner Bio-one). Compounds were applied 2 hours post seeding, for either 36 (FIG. 5a-b) or 72 hours (FIG. 5d-e). After completion of each experimental regimen, cells were fixed with 4% paraformaldehyde (Electron Microscopy Sciences), and stained with anti-pH3 antibody (Upstate; 1:100) followed by a secondary antibody (Invitrogen) and Hoechst (Invitrogen). Images were then collected using a confocal microscope. Cell proliferation, as marked by a pH3 signal, was quantified with an in-house program developed by the authors using Acapella 2.0 software. Identical microscopic settings were used in each analysis and identical input parameters were implemented for each experiment.
CGNP primary cells were isolated from P7 Ptch1+/− mice as previously reported^44. Cells were seeded in poly-D-lysine coated imaging plates (Greiner Bio-one), treatments were applied 2 hours thereafter and last for 36 hours. Cells then were fixed with 4% paraformaldehyde (Electron Microscopy Sciences), and stained with anti-pH3 antibody (Upstate; 1:100) followed by a secondary antibody (Invitrogen) and Hoechst (Invitrogen). Images were collected and cell proliferation quantified with a program developed by the authors utilizing Acapella 2.0 software. All of the images in each experiment were collected with identical microscopic settings and analyzed with identical input parameters.

Hh pathway activity [2] = test: Gli-luciferase reporter assay, Shh-induced Hh pathway activity (ShhLightII cells); format: cell-based
From the text: NIH/3T3 cells were maintained in DMEM containing 10% (v/v) calf serum, penicillin, streptomycin, and L-glutamine. HEK293, L, cos 7, and suFU−/− mouse embryonic fibroblast cells were maintained in DMEM containing 10% (v/v) fetal bovine serum, penicillin, streptomycin, and L-glutamine. Smo::EGFP, SmoM2::GFP, and Ivs::tagRFPT were cloned into pBabe to generate retroviral particles for infection. Smo::EGFP/Ivs::tagRFPT and SmoM2::GFP/Ivs::tagRFPT stable cell lines were generated through viral infection of NIH/3T3^12. A ShhLightII Gli reporter cell line was obtained from the American Type Culture Collection (ATCC) and used in luciferase reporter assays to measure Hh pathway activity. The cell line contains a stably integrated Gli-responsive Firefly luciferase reporter and a constitutive Renilla luciferase expression construct^33. Subclones expressing Smo or SmoM2 in ShhLightII cells were used for chemical epistasis analyses.
(§1) Hh activity assays were performed using ShhLightll cells, Smo/Lightll cells, SmoM2/Lightll cells, and suFU−/− mouse embryonic fibroblasts. In the suFU−/− cells, Hh activity was measured after co-transfection with Gli driven firefly luciferase and TK-renilla luciferase reporters^41. Wnt activity was measured in 293 cells co-transfected with Top-flash and TK-renilla luciferase reporters^42. Cells were cultured and treated in 96 well assay plates (Corning) and incubated with Duo-Glo luciferase substrates (Promega) to measure firefly and renilla luciferase activity sequentially using a Top Count NX Microplate Scintillation and Luminescence Counter (Perkin Elmer). The renilla luciferase signal was used to normalize the firefly reporter activity.
(§2) ShhLightII cells and SmoM2/LightII cells were cultured and treated in 96 well assay plates (Corning) and incubated with Duo-Glo luciferase substrates (Promega) to sequentially measure firefly and renilla luciferase activity. Smo, or GFP, expression plasmids were co-transfected into 3T3 cells together with a Gli-responsive firefly reporter and a TK-renilla luciferase reporter contruct to monitor effects of Smo overexpression. Co-transfection of the two reporter constructs was conducted in assays measuring Hh pathway activity in suFU−/− cells. Wnt activity was measured following co-transfection of a Top-flash and renilla luciferase reporter. In both Hh and Wnt activity assays, renilla luciferase reporter activity, or mass of protein, was used to normalize expression values. Luciferase signal was read by TopCount NX Microplate Scintillation and Luminescence Counter (Perkin Elmer). Quantitative PCR probes for Ptch1, Gli1, and β-actin were purchased from Applied Biosystems. Reactions and measurements were performed using on an Applied Biosystems 7900HT at Harvard FAS Center of System Biology. β-actin was used to normalize Ptch1 and Gil1 values.

Wnt signaling activity = test: Wnt Top-flash reporter assay; format: cell-based; details: with or without Wnt3a
Method: as §1, §2

Hh pathway activity [3] = test: Priming and withdrawal of compound followed by Shh stimulation, Gli-luciferase reporter (hypersensitivity); format: cell-based; details: for hypersensitivity to Hh pathway stimulation after priming with and removal of compound, Gli-luciferase: priming 24 hours, washout, then Shh (or SAG) stimulation
Method: as §1
Following the removal of drug containing medium, and extensive washing, cells were stimulated with either Hh ligand, or the direct-binding Smo agonist SAG^17,18.
as §2

[4] = test system: Smo::EGFP/Ivs::tagRFPT cells; test: Cytotoxicity in vitro in the high content assay; format: cell-based; details: doses up to 200 μM
Method: Hoechst staining was used to determine the total number of nuclei per well.
Cells were cultured and treated in 384-well imaging plate precoated with poly-D-Lysine (Greiner Bio-one), fixed with 4% paraformaldehyde (Electron Microscopy Sciences), and stained with Hoechst (Invitrogen). Images were collected using Opera High Content Screening System (Perkin Elmer).

Hh pathway activity [5] = test: Gli-luciferase reporter assay, Hh pathway activation by compound alone (NIH/3T3 cells); format: cell-based
Method: as §2

Row | Structure (SMILES) | IC50 (Smo; Cos7/Smo expression, stimulus none, read-out: IC50, competition of BODIFY-cyclopamine-Smo binding) [nM] | competition of Bodipy-Cyc binding to Smo (Smo) | Shh driven hyperactivation after removal of compound, CGNP proliferation assay ([1]; CGNPs, after removal of compound) | IC50 ([1]; Mus musculus, Neuron, pH 3, Ptch ± CGNP, stimulus Shh, read-out: IC50, Shh induced cell proliferation marked by pH 3) [nM] | effect on Shh-induced pH3 marked proliferation of CGNPs ([1]; Ptch1+/− CGNPs, Shh) | IC50 (Hh pathway activity [2]; Mus musculus, Shh Light II, 3T3/Shh-LightII cells, stimulus Shh, read-out: IC50, inhibition of Shh-induced expression of Gli-luciferase reporter) [nM] | effect on Wnt pathway reporter activity (Wnt signaling activity) | hypersensitivity to Hh pathway stimulation after priming with and removal of compound, Gli-luciferase (Hh pathway activity [3]) | effect on GDC0449 inhibition of Shh-stimulated CGNP proliferation ([1]; FA 10 μM co-administered with GDC0449) | Shh-driven CGNP proliferation ([1]; FA 10 μM with Shh) | number of proliferative pH3 positive CGNPs ([1]; FA 120 μM) | cytotoxic effects in vitro [4] | effect of co-stimulation on Shh-induced transcriptional response (Hh pathway activity [2]; 10 μM FA together with Shh) | EC50 (Hh pathway activity [3]; cells treated 24 hours, compound withdrawal prior to Shh addition, read-out: EC50 of induced response to priming) [nM] | Hh pathway activation in transcription reporter assay (Hh pathway activity [5]; FA 10 μM) | transcriptional response in Gli-luciferase reporter assay (Hh pathway activity [5]; FA >50 μM) [fold] | EC50 (Hh pathway activity [5]; Mus musculus, NIH3T3, Gli-luciferase reporter, compound alone, read-out: EC50 for weak transcriptional activation) [nM]
1 | CCN(CC)c1ccc(/C=N/NC(=O)c2ccc(O)cc2)cc1 [DY131] | 100 | effective competitor | no Shh driven hyperactivation | < 625 | dramatically decreased | 2000 | absence of an inhibitory activity | no Shh driven hyperactivation | – | – | – | – | – | – | – | – | –
2 | CC1(C)O[C@@H]2C[C@H]3[C@@H]4C[C@H](F)C5=CC(=O)C=C[C@]5(C)[C@@]4(F)[C@@H](O)C[C@]3(C)[C@]2(C(=O)CO)O1 [FA, fluocinolone acetonide] | – | dose-dependent competition | – | – | – | – | no change was detected | higher induction of pathway activity | impaired | markedly enhanced | elevated | no obvious cytotoxic effects | dose-dependent enhancement | ~4000 | no pathway activation was observed | 4 | > 50000
